# Measurements taken from patent US20200222347A1, “ANTIMICROBIALS AND METHODS OF USE THEREOF” (priority 2013, published 2020).
# “Also recorded” adds a separate entry of the source. Where two headings read alike, the source gives them in different places.
# What was measured:
# P. acnes 6919 = experiment: Kirby-Bauer disc diffusion antimicrobial susceptibility; assay type: cell-based; conditions: 100 mM, carrier water
# P. aeruginosa = experiment: as above; assay type: cell-based, Pseudomonas aeruginosa; conditions: 100 mM, carrier water; 18-24 hours for aerobes
# [1] = test system: Staphylococcus epidermidis ATCC 51625 (MRSE); experiment: In vitro antimicrobial test (FIG. 32); assay type: cell-based
# [2] = test system: P. aeruginosa (ACTA 9027); assay type: in vivo
# [3] = test system: P. aeruginosa (ACTA 27853); assay type: in vivo; conditions: for bacterial burden of P. aeruginosa in skin tissue: 25 mM topical in water
# EGF = experiment: Local growth hormones in tape stripped mouse skin wound by ELISA (FIG. 11, FIG. 13, Example 5); assay type: in vivo, mice
# Procedure: (§1) Four different conditions were used: mice had back skin tape stripped and the stripped site (wound) was infected with P. aeruginosa; mice had back skin stripped and were not infected, mice had taped stripped, infected and treated with PCA, mice were tape stripped, uninfected, and treated with PCA. When used, the PCA test reagent was applied topically in an aqueous solution on the stripped site at two hours and 24 hours.
# (§2) The testing reagents consisted of and PCA formulated at one dose, 25 mM, in an aqueous solution. Levels of IGF-1, TGF-β, and EGF levels in the skin tissue at 48 hours were measured by ELISA. There were two control groups; the stripped skin and the stripped skin and infected.
# IGF-1 = experiment: as above; assay type: in vivo, mice
# Procedure: as §1, §2
# TGF-β = experiment: as above; assay type: in vivo, mice
# Procedure: as §1, §2
# [4] = test system: normal human skin bacterial resident flora; experiment: Human skin disinfection study, Loma Linda, Phase 1; assay type: in vivo
# Procedure: A randomized double blinded study was performed at Loma Linda Medical School. It involved 4 phases over two years' time. The methods were as follows:
# […] […] The controls were Chloroprep (2% Chlorhexidine in 70% isopropyl alcohol) and Betadine (9.0% to 12.0% available iodine in water). Cultures were taken before application and 20 minutes after application. The initial harvest was by a surface swab. Application was by soaked sponge, without force or scrubbing. The second harvest was performed with the back edge of a sterile knife blade scraping with pressure in attempt to maximize the harvest from the deeper sebaceous glands and hair follicles. The specimens were placed in culture media. Bacteriology was performed at WuXiAppTec in Marrietta, Ga.
# [5] = test system: normal human skin bacterial resident flora; experiment: Human skin disinfection study, Loma Linda, Phase IV; assay type: in vivo; conditions: for no growth cultures results after treatment, anaerobic / no growth cultures results after treatment, Aerobic: Phase IV, two applications
# Procedure: Method: The variations in materials and methods in this phase were based upon results of the previous phases. They included changes in the solution, the method of dissolving the PCA, the timing of skin application, plus using two applications to simulate the present day recommendations of surgical skin preparation.
# The method placed the 20 grams of ground PCA in sterile container with volume markers. Then added 85 ml of 91% isopropyl alcohol; warm and shake. […] A repeat of warming and shaking was instituted. The container was filled to 100 ml, warm and repeated the shaking. It took perhaps 15 to 20 minutes for the ground crystals to dissolve.
# An area was marked at 4 corners on the anterior axilla area of both shoulders. There was a topical reagent application. After 5 minutes a second application was made. The control group was again Chloroprep®. The experimental side was applied with manual motion and pressure on a sterile sponge soaked with the PCA solution. The subjects put hands on head for 10 minutes and then 10 minutes of moving arms around. Culture #1 was harvested with scraping at 20 minutes post 2nd application. Subjects rested their arms at side for 40 minutes which is 60 minutes after the first application and 40 minutes after culture #1. A second culture is taken with scraping. The post application cultures were taken of each shoulder skin area with scraping with back side of a sterile surgical knife blade to maximize the yield.
# [6] = test system: Pseudomonas aeruginosa ATCC9027; experiment: Paper disc test with water or propylene glycol, Example 10
# [7] = test system: Pseudomonas Aeruginosa ATCC 700888 biofilm; experiment: Single spray on biofilm on glass slides, time study, Example 8; conditions: for log reduction: 30% PCA spray in isopropyl alcohol, vs positive control slides
# [8] = test system: Staphylococcus aureus ATCC 33591 (MRSA) biofilm; experiment: as above; conditions: for CFUs after spray: 30% PCA spray
# [9] = test system: skin stripped wounds infected with Pseudomonas aeruginosa (ATCC 27853); experiment: Histology of stripped, infected and treated skin wound, Example 6; conditions: 48 hours
# [10] = 25 mM at 2 and 24 hours, tape stripped and infected with P. aeruginosa, 48 hours (FIG. 13)
# [11] = 1% PCA in water, 20 minutes after application
structure (smiles),measurement,setting,value
"O=C(O)c1ccc(O)c(O)c1 [PCA, Protocatechuic acid]",effectiveness against P. acnes (growth inhibition),P. acnes 6919,effective; also recorded: able to kill; also recorded: bactericidal
same,effectiveness against P. aeruginosa,P. aeruginosa,effective; also recorded: some effectiveness
same,effectiveness against MRSE ATCC 51625,[1],effective
same,most effective concentration for decreasing bacterial burden,"[2]; of 50, 100 and 200 mM tested, 96 hours",50 mM
same,bacterial burden in the skin,"[2]; topical in water, 50, 100 and 200 mM, at two hours and daily for four days, day five, none statistically significant",decreased the bacterial burden
same,bacterial burden of P. aeruginosa in skin tissue,[3]; 48 and 96 hours,reduced the bacterial burden
same,bacterial burden of P. aeruginosa in skin tissue,[3]; 48 hours,significantly decreased; also recorded: effective
same,dose that was bactericidal on Pseudomonas aeruginosa on taped stripped rodent skin,[3]; calculated from 25 mM and applied volume,0.00038 grams
same,kill of Pseudomonas aeruginosa,"[3]; in 48 hours, both reagents and dose (PCA 25, 50 mM; C3G 100, 200 mM)","10,000 fold"
same,action on stripped skin wound of a rodent,"[3]; topical, various calculated doses, in 48 to 96 hours",bactericidal
same,EGF level in skin tissue,EGF; [10],decreased; also recorded: lowest
same,local growth hormone level of EGF,"EGF; 25 mM, site of the untreated skin wound (FIG. 11C)",increased
same,IGF-1 level in skin tissue,IGF-1; [10],moderately elevated; also recorded: optimizes the IGF-1 production
same,local growth hormone level of IGF-1,"IGF-1; 25 mM, site of the untreated skin wound (FIG. 11A)",increased
same,optimal dose to optimize local growth hormones,"IGF-1; IGF-1, TGF-β and EGF together, rodent skin wound",Approximately 25 mM
same,TGF-β level in skin tissue,TGF-β; [10],decreased
same,local growth hormone level of TGF-Beta,"TGF-β; 25 mM, site of the untreated skin wound (FIG. 11B)",increased
same,anaerobic cultures with no growth,[4]; [11],6 of 22
same,subjects with no growth on aerobic culture,[4]; [11],7 of 22
same,anaerobic cultures with reduced colony growth,"[4]; 1% PCA in water, of 22 cultures",15
same,aerobic cultures with reduced growth,"[4]; 1% PCA in water, of 22 subjects",10 cultures
same,"effectiveness as skin disinfectant, Phase 1",[4]; 20 minutes after application,partially effective
same,removal of potential pathogens from skin,"[5]; Phase IV solution: 20 grams of PCA, 91% isopropyl alcohol, 5 ml of essence of peppermint oil",effective in removing potential pathogens
same,"no growth cultures results after treatment, anaerobic",[5]; 20 minutes,4/12
same,"no growth cultures results after treatment, Aerobic","[5]; 20 minutes, PCA in 91% isopropyl alcohol and essential oil of peppermint",12/12
same,"no growth cultures results after treatment, Aerobic",[5]; 60 minutes,7/12
same,"no growth cultures results after treatment, anaerobic",[5]; 60 minutes,6/12
same,inhibition of growth under the sample,[6]; PPG,I
same,zone of inhibition,[6]; PPG,4 mm
same,inhibition of growth under the sample,[6]; Water,I
same,zone of inhibition,[6]; Water,10 mm
same,log reduction,[7]; after 30 minutes,3.3 log
same,log reduction,[7]; after 60 minutes,2.2 log
same,reduction in the number colony forming units,"[7]; 30% PCA spray, after 60 minutes",99.9%
same,CFUs after spray,"[8]; after 30 minutes, from 60 million CFUs",3 million
same,CFUs after spray,"[8]; after 60 minutes, from 25 million",2 million CFUs
same,biofilms killed,"[8]; […], 30 minutes",90%
same,collagen between the epidermis and dermis,[9]; 25 mM,collagen proliferation between the epidermis and dermis; also recorded: collagen layer formation
same,dermal layer,[9]; 25 mM,thickened
same,hair follicles,[9]; 25 mM,prominent with multiple cellular lining
same,inflammation,[9]; 25 mM,abundant inflammation
same,surface cellularity,[9]; 25 mM,abundant and multiple cell layers
same,vascularity,[9]; 25 mM,moderate vascularity
same,dermal layer,[9]; 50 mM,thicker
same,hair follicles,[9]; 50 mM,double layer of cells
same,inflammation,[9]; 50 mM,increased in the dermis and below the muscle layer
same,surface cellularity,[9]; 50 mM,covered with multiple layers of cells
same,vascularity,[9]; 50 mM,increased vascularity
same,tissue repair / healing response by histology,"[9]; PCA 25 and 50 mM, C3G 100 and 200 mM",stimulated tissue repair
